What was measured:
Format in all cases: in vivo
Alfalfa [1] = test: Preemergence herbicidal activity, % control of plant growth; conditions: Medicago sativa, pre-emergence, 504 h, 16 lb/acre, about 3 weeks
From the text: (§1) By "preemergence" is meant that the compound is applied to the soil prior to emergence of the weed species sought to be controlled. This term, as used herein, also means the application of the herbicidal compounds falling within the scope of this disclosure to areas wherein useful or desirable plants are either growing or have been sown, but where the undesirable plants sought to be controlled have not as yet emerged.
(§2) In using the compound, seeds of the types of plants set forth in Table II were sown in fresh soil. In the preemergence test the soil was sprayed with a solution of the test compound immediately after the seeds were planted, and before any noticeable growth developed. The solution was about a 2 percent by weight solution of the compound in acetone and/or alcohol. The compound was applied at the rate of 16 pounds per acre of soil surface.
(§3) Approximately 3 weeks after spray application, the herbicidal activity of the compound was determined by visual observation of the treated area in comparison with untreated control areas. These observations are reported below in Table II wherein the average activity rating is reported as the percent control of plant growth.
(§4) *Preemergence test: compound applied at rate of 16 lb/acre

Barnyard Grass [2] = test: as above; conditions: Echinochloa crus-galli, pre-emergence, 504 h; barnyard grass; 16 lb/acre; about 3 weeks
From the text: as §1, §2, §3, §4

Cheatgrass [3] = test: as above; conditions: Bromus tectorum, pre-emergence, 504 h, 16 lb/acre, about 3 weeks
From the text: as §1, §2, §3, §4

Chickweed [4] = test: as above; conditions: pre-emergence, 504 h, 16 lb/acre, about 3 weeks
From the text: as §1, §2, §3, §4

Corn [5] = test: as above; conditions: Zea mays, pre-emergence, 504 h, 16 lb/acre, about 3 weeks
From the text: as §1, §2, §3, §4

Crabgrass [6] = test: as above; conditions: Digitaria sanguinalis, pre-emergence, 504 h, 16 lb/acre, about 3 weeks
From the text: as §1, §2, §3, §4

Cucumber [7] = test: as above; conditions: Cucumis sativus, pre-emergence, 504 h, 16 lb/acre, about 3 weeks
From the text: as §1, §2, §3, §4

Curled Dock [8] = test: as above; conditions: pre-emergence, 504 h, 16 lb/acre, about 3 weeks
From the text: as §1, §2, §3, §4

Foxtail [9] = test: as above; conditions: Setaria, pre-emergence, 504 h, 16 lb/acre, about 3 weeks
From the text: as §1, §2, §3, §4

Johnsongrass [10] = test: as above; conditions: Sorghum halepense, pre-emergence, 504 h, 16 lb/acre, about 3 weeks
From the text: as §1, §2, §3, §4

Lambsquarters [11] = test: as above; conditions: Chenopodium album, pre-emergence, 504 h, 16 lb/acre, about 3 weeks
From the text: as §1, §2, §3, §4

Nutgrass [12] = test: as above; conditions: pre-emergence, 504 h, 16 lb/acre, about 3 weeks
From the text: as §1, §2, §3, §4

Pigweed [13] = test: as above; conditions: Amaranthus retroflexus, pre-emergence, 504 h, 16 lb/acre, about 3 weeks
From the text: as §1, §2, §3, §4

Snapbeans [14] = test: as above; conditions: pre-emergence, 504 h, 16 lb/acre, about 3 weeks
From the text: as §1, §2, §3, §4

Velvetleaf [15] = test: as above; conditions: Abutilon theophrasti, pre-emergence, 504 h, 16 lb/acre, about 3 weeks
From the text: as §1, §2, §3, §4

Wild Oats [16] = test: as above; conditions: Avena fatua, pre-emergence, 504 h, 16 lb/acre, about 3 weeks
From the text: as §1, §2, §3, §4

Yellow Rocket [17] = test: as above; conditions: pre-emergence, 504 h, 16 lb/acre, about 3 weeks
From the text: as §1, §2, §3, §4

Alfalfa [18] = test: Postemergence herbicidal activity, % control of plant growth; conditions: Medicago sativa, post-emergence, 264 h, 8 lb/acre, about 11 days
From the text: (§5) By the term "postemergence" is meant that the compound is applied to the plant sought to be controlled after it has emerged from the soil surface. This term is also used to describe the application of herbicidally active compounds to soil surface in and around growing plants sought to be controlled for purposes of effecting root absorption by the undesirable plant species.
(§6) In the postemergence test the soil and developing plants were sprayed approximately 2 weeks after the seeds were sown. The compound was applied at the rate of 8 pounds per acre from about a 2 percent by weight solution of the test compound in acetone and/or alcohol. The postemergence herbicidal activity was measured in the same way as the preemergence activity; i.e. visual observation approximately 11 days after spraying, and expressed as the percent control of plant growth.
(§7) **Postemergence test: compound applied at rate of 8 lb/acre

Barnyard Grass [19] = test: as above; conditions: Echinochloa crus-galli, post-emergence, 264 h, 8 lb/acre, about 11 days
From the text: as §5, §6, §7

Cheatgrass [20] = test: as above; conditions: Bromus tectorum, post-emergence, 264 h, 8 lb/acre, about 11 days
From the text: as §5, §6, §7

Chickweed [21] = test: as above; conditions: post-emergence, 264 h, 8 lb/acre, about 11 days
From the text: as §5, §6, §7

Corn [22] = test: as above; conditions: Zea mays, post-emergence, 264 h, 8 lb/acre, about 11 days
From the text: as §5, §6, §7

Crabgrass [23] = test: as above; conditions: Digitaria sanguinalis, post-emergence, 264 h, 8 lb/acre, about 11 days
From the text: as §5, §6, §7

Cucumber [24] = test: as above; conditions: Cucumis sativus, post-emergence, 264 h, 8 lb/acre, about 11 days
From the text: as §5, §6, §7

Curled Dock [25] = test: as above; conditions: post-emergence, 264 h, 8 lb/acre, about 11 days
From the text: as §5, §6, §7

Foxtail [26] = test: as above; conditions: Setaria, post-emergence, 264 h, 8 lb/acre, about 11 days
From the text: as §5, §6, §7

Johnsongrass [27] = test: as above; conditions: Sorghum halepense, post-emergence, 264 h, 8 lb/acre, about 11 days
From the text: as §5, §6, §7

Lambsquarters [28] = test: as above; conditions: Chenopodium album, post-emergence, 264 h, 8 lb/acre, about 11 days
From the text: as §5, §6, §7

Nutgrass [29] = test: as above; conditions: post-emergence, 264 h, 8 lb/acre, about 11 days
From the text: as §5, §6, §7

Pigweed [30] = test: as above; conditions: Amaranthus retroflexus, post-emergence, 264 h, 8 lb/acre, about 11 days
From the text: as §5, §6, §7

Snapbeans [31] = test: as above; conditions: post-emergence, 264 h, 8 lb/acre, about 11 days
From the text: as §5, §6, §7

Velvetleaf [32] = test: as above; conditions: Abutilon theophrasti, post-emergence, 264 h, 8 lb/acre, about 11 days
From the text: as §5, §6, §7

Yellow Rocket [33] = test: as above; conditions: post-emergence, 264 h, 8 lb/acre, about 11 days
From the text: as §5, §6, §7

Wild Oats [34] = test: as above; conditions: Avena fatua, post-emergence, 264 h, 8 lb/acre, about 11 days
From the text: as §5, §6, §7

O=c1[nH]c2cccnc2c(=O)n1C1CC1 [3-cyclopropyl pyrido[3,2-d]pyrimidine-2,4(1H,3H)-dione]
0%: pest or weed control at 17933.6 g/ha (Nutgrass [12]) | pest or weed control at 8966.8 g/ha (Alfalfa [18]) | pest or weed control at 8966.8 g/ha (Barnyard Grass [19]) | pest or weed control at 8966.8 g/ha (Cheatgrass [20]) | plant injury at 8966.8 g/ha (Corn [22]) | pest or weed control at 8966.8 g/ha (Foxtail [26]) | pest or weed control at 8966.8 g/ha (Johnsongrass [27]) | pest or weed control at 8966.8 g/ha (Nutgrass [29]) | pest or weed control at 8966.8 g/ha (Snapbeans [31]) | pest or weed control at 8966.8 g/ha (Velvetleaf [32])
20%: pest or weed control at 8966.8 g/ha (Cucumber [24])
10%: pest or weed control at 17933.6 g/ha (Barnyard Grass [2]) | plant injury at 17933.6 g/ha (Corn [5]) | pest or weed control at 17933.6 g/ha (Foxtail [9]) | pest or weed control at 17933.6 g/ha (Johnsongrass [10]) | pest or weed control at 8966.8 g/ha (Crabgrass [23]) | pest or weed control at 8966.8 g/ha (Curled Dock [25])
80%: pest or weed control at 17933.6 g/ha (Wild Oats [16])
100%: pest or weed control at 17933.6 g/ha (Alfalfa [1]) | pest or weed control at 17933.6 g/ha (Cheatgrass [3]) | pest or weed control at 17933.6 g/ha (Chickweed [4]) | pest or weed control at 17933.6 g/ha (Crabgrass [6]) | pest or weed control at 17933.6 g/ha (Cucumber [7]) | pest or weed control at 17933.6 g/ha (Curled Dock [8]) | pest or weed control at 17933.6 g/ha (Lambsquarters [11]) | pest or weed control at 17933.6 g/ha (Pigweed [13]) | pest or weed control at 17933.6 g/ha (Snapbeans [14]) | pest or weed control at 17933.6 g/ha (Velvetleaf [15]) | pest or weed control at 17933.6 g/ha (Yellow Rocket [17]) | pest or weed control at 8966.8 g/ha (Chickweed [21]) | pest or weed control at 8966.8 g/ha (Lambsquarters [28]) | pest or weed control at 8966.8 g/ha (Yellow Rocket [33])
90%: pest or weed control at 8966.8 g/ha (Pigweed [30])

O=c1[nH]c2nccnc2c(=O)n1C1CCCCCCC1 [Lumazine, 3-cyclooctyl]
100%: pest or weed control at 17933.6 g/ha (Alfalfa [1]) | pest or weed control at 17933.6 g/ha (Cheatgrass [3]) | pest or weed control at 17933.6 g/ha (Chickweed [4]) | pest or weed control at 17933.6 g/ha (Cucumber [7]) | pest or weed control at 17933.6 g/ha (Curled Dock [8]) | pest or weed control at 17933.6 g/ha (Lambsquarters [11]) | pest or weed control at 17933.6 g/ha (Pigweed [13]) | pest or weed control at 17933.6 g/ha (Snapbeans [14]) | pest or weed control at 17933.6 g/ha (Velvetleaf [15]) | pest or weed control at 17933.6 g/ha (Wild Oats [16]) | pest or weed control at 17933.6 g/ha (Yellow Rocket [17]) | pest or weed control at 8966.8 g/ha (Chickweed [21]) | pest or weed control at 8966.8 g/ha (Crabgrass [23]) | pest or weed control at 8966.8 g/ha (Cucumber [24]) | pest or weed control at 8966.8 g/ha (Curled Dock [25]) | pest or weed control at 8966.8 g/ha (Johnsongrass [27]) | pest or weed control at 8966.8 g/ha (Lambsquarters [28]) | pest or weed control at 8966.8 g/ha (Snapbeans [31]) | pest or weed control at 8966.8 g/ha (Velvetleaf [32]) | pest or weed control at 8966.8 g/ha (Yellow Rocket [33])
90%: pest or weed control at 17933.6 g/ha (Crabgrass [6]) | pest or weed control at 17933.6 g/ha (Johnsongrass [10]) | pest or weed control at 8966.8 g/ha (Barnyard Grass [19])
70%: pest or weed control at 17933.6 g/ha (Barnyard Grass [2])
10%: pest or weed control at 8966.8 g/ha (Alfalfa [18]) | plant injury at 8966.8 g/ha (Corn [22]) | pest or weed control at 8966.8 g/ha (Nutgrass [29]) | pest or weed control at 8966.8 g/ha (Wild Oats [34])
50%: pest or weed control at 8966.8 g/ha (Foxtail [26])
40%: pest or weed control at 17933.6 g/ha (Foxtail [9])
30%: plant injury at 17933.6 g/ha (Corn [5]) | pest or weed control at 17933.6 g/ha (Nutgrass [12])
0%: pest or weed control at 8966.8 g/ha (Cheatgrass [20])

CC(C)n1c(=O)[nH]c2nccnc2c1=O [Lumazine, 3-isopropyl]
40%: pest or weed control at 8966.8 g/ha (Lambsquarters [28])
70%: pest or weed control at 17933.6 g/ha (Crabgrass [6]) | pest or weed control at 17933.6 g/ha (Johnsongrass [10])
0%: pest or weed control at 17933.6 g/ha (Barnyard Grass [2]) | pest or weed control at 17933.6 g/ha (Nutgrass [12]) | pest or weed control at 8966.8 g/ha (Alfalfa [18]) | pest or weed control at 8966.8 g/ha (Barnyard Grass [19]) | pest or weed control at 8966.8 g/ha (Cheatgrass [20]) | pest or weed control at 8966.8 g/ha (Chickweed [21]) | plant injury at 8966.8 g/ha (Corn [22]) | pest or weed control at 8966.8 g/ha (Crabgrass [23]) | pest or weed control at 8966.8 g/ha (Curled Dock [25]) | pest or weed control at 8966.8 g/ha (Foxtail [26]) | pest or weed control at 8966.8 g/ha (Johnsongrass [27]) | pest or weed control at 8966.8 g/ha (Nutgrass [29]) | pest or weed control at 8966.8 g/ha (Pigweed [30]) | pest or weed control at 8966.8 g/ha (Velvetleaf [32]) | pest or weed control at 8966.8 g/ha (Wild Oats [34])
30%: pest or weed control at 8966.8 g/ha (Snapbeans [31])
100%: pest or weed control at 17933.6 g/ha (Alfalfa [1]) | pest or weed control at 17933.6 g/ha (Cucumber [7]) | pest or weed control at 17933.6 g/ha (Curled Dock [8]) | pest or weed control at 17933.6 g/ha (Lambsquarters [11]) | pest or weed control at 17933.6 g/ha (Pigweed [13]) | pest or weed control at 17933.6 g/ha (Velvetleaf [15]) | pest or weed control at 17933.6 g/ha (Yellow Rocket [17])
10%: pest or weed control at 17933.6 g/ha (Cheatgrass [3]) | plant injury at 17933.6 g/ha (Corn [5]) | pest or weed control at 17933.6 g/ha (Foxtail [9]) | pest or weed control at 17933.6 g/ha (Wild Oats [16]) | pest or weed control at 8966.8 g/ha (Cucumber [24])
90%: pest or weed control at 17933.6 g/ha (Snapbeans [14])
60%: pest or weed control at 17933.6 g/ha (Chickweed [4])

Reference: patent publication US3960877A, “N-monosubstituted-2,3-pyridinedicarboxamides, and related compounds” (priority 1974, dated 1976)
